Source: US20220117964A1, “COMBINATION OF FAK INHIBITOR AND BTK INHIBITOR FOR TREATING A DISEASE” (ASCENTAGE PHARMA (SUZHU) CO., LTD., priority 2019, published 2022)
Read-outs that look alike come from different tables or passages of the source.

Key:
KYSE-150 cells = experiment: Cell migration (Transwell) assay; format: cell-based, human; conditions: 1 μM Compound 5, 1 μM Ibrutinib or both
Description: (§1) The culture medium was sucked into a chamber of Transwell (PC membrane, pore size 8.0 μm, Corning, N.Y., USA), and then the chamber was placed in a 24-well plate containing 750 μl of 50% FBS medium. After incubation for 24 to 30 hours, the chamber was taken out, the medium in the chamber was sucked out, and the redundant cells in the chamber were wiped off with a cotton swab. The chamber was placed in paraformaldehyde to perform fixation for 15 minutes, and staining was performed with 0.5% crystal violet at room temperature for 15 minutes. Cell migration activity was described as a relative number of the cells that exited the chamber.
(§2) (1) The experimental method was as described in the items (1), (2), (5) of Example 2. […] The changes in signaling pathway of related proteins were determined by Western blotting assay.

YES-2 cells = experiment: Cell migration (Transwell) assay; format: cell-based; conditions: 0.5 μM Compound 5, 0.25 μM Ibrutinib or both
Description: as §1, §2

KYSE-520 = experiment: CCK-8 cell viability assay; format: cell-based; conditions: Homo sapiens; KYSE-520 cells, CCK-8, 72 hours; read-out: IC50, proliferation inhibition
Description: (§3) Cell viability was measured using Cell Counting Kit-8 (Dojindo, Japan) according to the manufacturer's instructions. In short, cells were inoculated in a 96-well plate at 3000 to 4000 cells/well in the presence of a single drug or a combination of drugs for 72 hours. After 72 hours, CCK-8 reagent (10 μL/well) was added and incubated at 37° C. for 1-2 hours, and absorbance readings at 450 nm were obtained. The IC50 values were calculated by using GraphPad Prism version 6.0.0 (GraphPad Software, San Diego, Calif. USA) for Windows.
(§4) (1) The experimental method was described in item (1) and item (5) of Example 2. The expression difference of FAK gene between normal esophageal tissue and esophageal cancer tissue was determined by analyzing the TCGA database source information in the GEPIA database (http://gepia.cancer-pku.cn/), and the correlation between the FAK gene and the EGFR gene in esophageal cancer was determined by analyzing the TCGA database source information using the Pearson test. The basic protein expression levels for the following proteins in 6 esophageal cancer cell lines (TE-10, TE-1, YES-2, KYSE-520, KYSE-510, KYSE-150) were detected by Western blot method: EGFR, phosphorylated-EGFR (p-EGFR, Tyr1068), FAK, phosphorylated-FAK (p-FAK, Tyr397), BTK, C-Myc, phosphorylated-C-Myc (p-C-Myc), in which f3-tubulin was used as internal reference protein.
(§5) (1) The experimental methods were as described in the items (1), (3) and (4) of Example 2.

YES-2 = experiment: CCK-8 cell viability assay; format: cell-based; conditions: read-out: IC50, proliferation inhibition
Description: as §3, §4, §5

KYSE-150 = experiment: CCK-8 cell viability assay; format: cell-based; conditions: Homo sapiens; KYSE-150 cells, CCK-8, 72 hours; read-out: IC50, proliferation inhibition
Description: as §3, §4, §5

TE-1 = experiment: CCK-8 cell viability assay; format: cell-based; conditions: Homo sapiens; TE-1 cells, CCK-8, 72 hours; read-out: IC50, proliferation inhibition
Description: as §3, with “Windows. […] The expression difference of FAK gene between normal esophageal tissue and esophageal cancer tissue was determined by analyzing the TCGA database source information in the GEPIA database (http://gepia.cancer-pku.cn/), and the correlation between the FAK gene and the EGFR gene in esophageal cancer was determined by analyzing the TCGA database source information using the Pearson test. The basic protein expression levels for the following proteins in 6 esophageal cancer cell lines (TE-10, TE-1, YES-2, KYSE-520, KYSE-510, KYSE-150) were detected by Western blot method: […]” for “Windows.”

KYSE-510 = experiment: CCK-8 cell viability assay; format: cell-based; conditions: Homo sapiens; KYSE-510 cells, CCK-8, 72 hours; read-out: IC50, proliferation inhibition
Description: as §3, with “Windows. […] The expression difference of FAK gene between normal esophageal tissue and esophageal cancer tissue was determined by analyzing the TCGA database source information in the GEPIA database (http://gepia.cancer-pku.cn/), and the correlation between the FAK gene and the EGFR gene in esophageal cancer was determined by analyzing the TCGA database source information using the Pearson test. The basic protein expression levels for the following proteins in 6 esophageal cancer cell lines (TE-10, TE-1, YES-2, KYSE-520, KYSE-510, KYSE-150) were detected by Western blot method: […]” for “Windows.”

TE-10 = experiment: CCK-8 cell viability assay; format: cell-based; conditions: Homo sapiens; TE-10 cells, CCK-8, 72 hours; read-out: IC50, proliferation inhibition
Description: as §3, with “Windows. […] The expression difference of FAK gene between normal esophageal tissue and esophageal cancer tissue was determined by analyzing the TCGA database source information in the GEPIA database (http://gepia.cancer-pku.cn/), and the correlation between the FAK gene and the EGFR gene in esophageal cancer was determined by analyzing the TCGA database source information using the Pearson test. The basic protein expression levels for the following proteins in 6 esophageal cancer cell lines (TE-10, TE-1, YES-2, KYSE-520, KYSE-510, KYSE-150) were detected by Western blot method: […]” for “Windows.”

Compound	cell migration (KYSE-150 cells)	cell migration (YES-2 cells)	IC50 (KYSE-520)	IC50 (YES-2; YES-2 cells, CCK-8, 72 hours)	IC50 (KYSE-150)	IC50 (TE-1)	IC50 (KYSE-510)	IC50 (TE-10)	IC50 (YES-2; 72 h)
Cc1cc(Nc2ncc(Cl)c(Nc3ccccc3S(=O)(=O)C(C)C)n2)c(OC(C)C)cc1C1=CCN(C2CCOCC2)CC1 [Compound 5, 5-chloro-N^2-(2-isopropoxy-5-methyl-4-(1-(tetrahydro-2H-pyran-4-yl)-1,2,3,6-tetrahydropyridin-4-yl)phenyl)-N^4-(2-(isopropylsulfonyl)phenyl)pyrimidine-2,4-diamine]	cell migration in certain extent	cell migration in certain extent	0.825 µM	0.956 µM	2.31 µM	2.21 µM	2.27 µM	2.6 µM	
C=CC(=O)N1CCC[C@@H](n2nc(-c3ccc(Oc4ccccc4)cc3)c3c(N)ncnc32)C1 [Ibrutinib]	cell migration in certain extent	cell migration in certain extent	0.245 µM		1.23 µM	9.88 µM	4.42 µM	3.01 µM	0.177 µM
